Results on 7 molecules are retold here after patent US20250340739A1 ([…] SOLUTIONS, priority 2022, published 2025).

The conditions of the series: solid state.
Where [1] appears, read: amber glass, away from light, t = 4 months.
The mark [2] stands for this setting: amber type II glass, away from light, t0, % area HPLC 240 nm.
Setting [3] is: amber glass, away from light, t = 1 month.
Where [4] appears, read: amber glass, away from light, t = 2 months.
Where [5] appears, read: amber glass, away from light, t = 6 months.
The mark [6] stands for this setting: amber glass, away from light, t = 5 month.

The structures appear in SMILES notation. Like-named read-outs stand apart in the source and are kept apart here.

Experimental: The elution is carried out by gradient. The mobile phase consists of ammonium formiate buffer 100 mM pH 4.5 (eluent A) and acetonitrile (eluent B). The composition of the mobile phase was modified continuously during the elution process according to the following Table II:

Consider `CC1(C)C(/C=C/C=C/C=C/C=C2\N(CCCCS(=O)(=O)[O-])c3ccc4ccccc4c3C2(C)C)=[N+](CCCCS(=O)(=O)[O-])c2ccc3ccccc3c21.[Na+]` [Example 4, Indocyanine green], for which, under setting [1], the “ICG purity (HPLC)” value turned out to be 94.11% and the “Total impurities (HPLC)” value is listed as 5.89%. For the same molecule, under setting [2], the “ICG purity (HPLC)” value is recorded as 95.98% and the “Total impurities (HPLC)” value is on record as 4.02%.

Regarding `CC1(C)C(/C=C/C=C/C=C/C=C2\N(CCCCS(=O)(=O)[O-])c3ccc4ccccc4c3C2(C)C)=[N+](CCCCS(=O)(=O)[O-])c2ccc3ccccc3c21.[Na+]` [NaOAsc, Indocyanine green], under setting [2], the “ICG purity (HPLC)” value came to 99.95% and the “Total impurities (HPLC)” value is on record as 0.05%. Moreover, where the note is “t = 8 weeks”, the “ICG purity (HPLC)” value was determined as 99.72% and the “Total impurities (HPLC)” value stood at 0.28%.

As to `CC1(C)C(/C=C/C=C/C=C/C=C2\N(CCCCS(=O)(=O)[O-])c3ccc4ccccc4c3C2(C)C)=[N+](CCCCS(=O)(=O)[O-])c2ccc3ccccc3c21.[Na+]` [NaBr, Indocyanine green], under setting [2], the “ICG purity (HPLC)” value stood at 99.95% and the “Total impurities (HPLC)” value came to 0.05%. Also, under “t = 4 weeks”, the “ICG purity (HPLC)” value came to 99.84% and the “Total impurities (HPLC)” value is 0.16%.

Consider `CC1(C)C(/C=C/C=C/C=C/C=C2\N(CCCCS(=O)(=O)[O-])c3ccc4ccccc4c3C2(C)C)=[N+](CCCCS(=O)(=O)[O-])c2ccc3ccccc3c21.[Na+]` [Example 2, Indocyanine green], for which the “ICG purity (HPLC)” value was determined as 99.25% under setting [3], 99.09% under setting [4], 99.03% under setting [5] and 99.21% under setting [2]. In addition, the “Total impurities (HPLC)” value is, setting by setting: under setting [3], 0.75%; under setting [4], 0.91%; under setting [5], 0.97%; under setting [2], 0.79%.

Regarding `CC1(C)C(/C=C/C=C/C=C/C=C2\N(CCCCS(=O)(=O)[O-])c3ccc4ccccc4c3C2(C)C)=[N+](CCCCS(=O)(=O)[O-])c2ccc3ccccc3c21.[Na+]` [NaOEt, Indocyanine green], the “ICG purity (HPLC)” value runs as follows: under setting [2], 99.58%; (t = 8 weeks) 99.34%. The “Total impurities (HPLC)” value is on record as 0.42% under setting [2] and 0.66% (t = 8 weeks).

Regarding `CC1(C)C(/C=C/C=C/C=C/C=C2\N(CCCCS(=O)(=O)[O-])c3ccc4ccccc4c3C2(C)C)=[N+](CCCCS(=O)(=O)[O-])c2ccc3ccccc3c21.[Na+]` [Example 3, Indocyanine green], the “ICG purity (HPLC)” value is, setting by setting: under setting [3], 98.39%; under setting [6], 97.95%; under setting [2], 98.60%. Further, the “Total impurities (HPLC)” value came to 1.61% under setting [3], 2.05% under setting [6] and 1.40% under setting [2].

With `CC1(C)C(/C=C/C=C/C=C/C=C2\N(CCCCS(=O)(=O)[O-])c3ccc4ccccc4c3C2(C)C)=[N+](CCCCS(=O)(=O)[O-])c2ccc3ccccc3c21.[Na+]` [NaOAc, Indocyanine green], under setting [2], the “ICG purity (HPLC)” value is given as 99.95% and the “Total impurities (HPLC)” value stood at 0.05%. Further, where the note is “t = 8 weeks”, the “ICG purity (HPLC)” value was 99.65% and the “Total impurities (HPLC)” value amounted to 0.35%.
